From ChEMBL document CHEMBL1131078, “Small molecular probes for G-protein-coupled C5a receptors: conformationally constrained antagonists derived from the C terminus of the human plasma protein C5a” (J Med Chem, 1998)
The source made the active and inactive calls. The calls are words filed in the database; no cut-off is given here. Where a SMILES comes first, the peptide text is derived from it.

Experiments:
[1] = biological target: T1, C5a anaphylatoxin chemotactic receptor 1 (Homo sapiens, UniProt P21730); experiment: 50% reduction in myeloperoxidase secretion from human PMNs mediated by 100 nM C5a
T1 sequence (P21730 whole entry): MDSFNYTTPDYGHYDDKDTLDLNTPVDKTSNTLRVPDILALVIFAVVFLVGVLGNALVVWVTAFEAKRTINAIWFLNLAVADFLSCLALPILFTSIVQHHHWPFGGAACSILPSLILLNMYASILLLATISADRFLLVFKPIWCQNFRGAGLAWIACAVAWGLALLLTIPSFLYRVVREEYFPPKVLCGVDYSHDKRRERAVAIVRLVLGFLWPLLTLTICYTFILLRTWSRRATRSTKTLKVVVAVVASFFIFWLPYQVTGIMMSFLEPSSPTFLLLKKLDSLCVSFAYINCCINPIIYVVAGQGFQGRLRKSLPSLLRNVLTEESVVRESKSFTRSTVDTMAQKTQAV

Homo sapiens = species: Homo sapiens; experiment: Agonist activity at dose range 0.1 nM to 1 mM in human PMNs; No agonistic activity; format: functional
[2] = biological target: T1, C5a anaphylatoxin chemotactic receptor 1; experiment: 50% reduction in binding of [125I]C5a to human polymorphonuclear cells (PMNs); format: cell-based, PMN

## CN[C@@H](Cc1ccccc1)C(=O)N[C@@H](CCCCN)C(=O)N1CCC[C@H]1C(=O)N[C@@H](CC(C)C)C(=O)N[C@@H](Cc1c[nH]c2ccccc12)C(=O)N[C@@H](CCCN=C(N)N)C(=O)O (HELM PEPTIDE1{[meF].K.P.L.W.R}$$$$V2.0)
[1]
  IC50: > 1 mM

## CN[C@@H](Cc1ccccc1)C(=O)N[C@@H](CCCCN)C(=O)N1CCC[C@H]1C(=O)N[C@H](CC1CCCCC1)C(=O)N[C@@H](Cc1c[nH]c2ccccc12)C(=O)N[C@H](CCCN=C(N)N)C(N)=O
Homo sapiens
  Agonistic activity: inactive

## CC(=O)N[C@@H](Cc1ccccc1)C(=O)N[C@H]1CCCCNC(=O)[C@H](CCCN=C(N)N)NC(=O)[C@H](Cc2c[nH]c3ccccc23)NC(=O)[C@@H](CC2CCCCC2)NC(=O)[C@@H]2CCCN2C1=O
Homo sapiens
  Agonistic activity: inactive

## CC(=O)N[C@@H](Cc1ccccc1)C(=O)N[C@H]1CCCNC(=O)[C@@H](CCCN=C(N)N)NC(=O)[C@H](Cc2c[nH]c3ccccc23)NC(=O)[C@@H](CC2CCCCC2)NC(=O)[C@@H]2CCCN2C1=O
Homo sapiens
  Agonistic activity: inactive

## CN[C@@H](Cc1ccccc1)C(=O)N[C@@H](CCCCN)C(=O)N1CCC[C@H]1C(=O)N[C@H](CC1CCCCC1)C(=O)N[C@@H](Cc1c[nH]c2ccccc12)C(=O)N[C@@H](CCCN=C(N)N)C(=O)O
Homo sapiens
  Agonistic activity: inactive

## CC[C@H](C)[C@H](N)C(=O)N[C@@H](CO)C(=O)N[C@@H](Cc1cnc[nH]1)C(=O)N[C@@H](CCCCN)C(=O)N[C@@H](CC(=O)O)C(=O)N[C@@H](CCSC)C(=O)N[C@@H](CCC(N)=O)C(=O)N[C@@H](CC(C)C)C(=O)NCC(=O)N[C@@H](CCCNC(=N)N)C(=O)O (H-ISHKDMQLGR-OH)
[2]
  IC50: > 1 mM

## CN[C@@H](Cc1ccccc1)C(=O)N[C@@H](CCCCN)C(=O)N1CCC[C@H]1C(=O)N[C@@H](CC1CCCCC1)C(=O)N[C@@H](Cc1c[nH]c2ccccc12)C(=O)N[C@@H](CCCN=C(N)N)C(=O)O
Homo sapiens
  Agonistic activity: inactive
